The values that follow come from ChEMBL document CHEMBL1145580, “Synthesis of diketopiperazine-based carboline homodimers and in vitro growth inhibition of human carcinomas” (2008).

Common to all, as to format: functional
In experiment [1] the test system is PC-3. Description: Cytotoxicity against human PC3 cells assessed as cell survival at 100 uM relative to control. Particulars: read-out: Activity.
Experiment [2] deals with NCI-H520. Kind of experiment: Growth inhibition of human NCI-H520 cells.
The subject of experiment [3] is NCI-H520. Kind of experiment: Cytotoxicity against human NCI-H520 cells assessed as cell survival at 50 uM relative to control. Particulars: read-out: Activity.
For experiment [4], the system named is PC-3. Description: Cytotoxicity against human PC3 cells assessed as cell survival at 50 uM relative to control. Particulars: read-out: Activity.
For experiment [5], the system named is PC-3. Description: Cytotoxicity against human PC3 cells assessed as cell survival at 10 uM relative to control. The note with it: read-out: Activity.
Experiment [6] relates to NCI-H520. Kind of experiment: Cytotoxicity against human NCI-H520 cells assessed as cell survival at 100 uM relative to control. Particulars: read-out: Activity.
Experiment [7] concerns NCI-H520. Description: Cytotoxicity against human NCI-H520 cells assessed as cell survival at 10 uM relative to control. The note with it: read-out: Activity.
Experiment [8] deals with PC-3. Description: Growth inhibition of human PC3 cells.

Each structure is given as a SMILES string.

One may read the GI50 as the concentration at which growth is held to half of that of the control. The low end stands for greater sensitivity of the cells, the high end for lower sensitivity of the cells. Take `COc1cc([C@@H]2c3[nH]c4ccccc4c3C[C@H]3C(=O)N4[C@H](c5cc(OC)c(O)c(OC)c5)c5[nH]c6ccccc6c5C[C@H]4C(=O)N23)cc(OC)c1O`: the results for the viability at 100 µM in experiment [1] and in experiment [6] were 1.6% and 5.8%, respectively. Also, the GI50 in experiment [2] stood at 21.5 µM; in experiment [8], 21.9 µM. In addition, the viability at 50 µM in experiment [3] stood at 16.5%; in experiment [4], 3.3%. In addition, the viability at 10 µM came to 80.7% in experiment [5] and 67.3% in experiment [7].

Regarding `COc1cc([C@@H]2c3cc4c(cc3[C@@H](O[C@@H]3O[C@@H]5CO[C@@H](C)O[C@H]5[C@H](O)[C@H]3O)[C@H]3COC(=O)[C@H]23)OCO4)cc(OC)c1O` [ETOPOSIDE], the figures for the viability at 100 µM in experiment [1] and in experiment [6] were 30.8% and 21.3%, respectively. Moreover, the 50% growth inhibitory concentration (GI50) in experiment [2] was determined as 13.5 µM; in experiment [8], 12.5 µM. For the same compound, the viability at 50 µM was 35.2% in experiment [3] and 41.2% in experiment [4]. The viability at 10 µM in experiment [5] was found to be 73.8%; in experiment [7], 78.6%.

As for `CC(C)=CCc1[nH]c2ccccc2c1C[C@@H]1NC(=O)[C@H]2CCCN2C1=O`, it took 12.3 µM to inhibit growth in experiment [8] by half (GI50).

As for `COc1cc([C@H]2c3[nH]c4ccccc4c3C[C@@H]3C(=O)N4[C@@H](c5cc(OC)c(O)c(OC)c5)c5[nH]c6ccccc6c5C[C@@H]4C(=O)N23)cc(OC)c1O`, the viability at 100 µM in experiment [1] is 15.7%; in experiment [6] it was 26.8%. Moreover, the GI50 in experiment [2] stood at 61.5 µM; in experiment [8] it was 55.3 µM. The viability at 50 µM in experiment [3] turned out to be 53.2%; in experiment [4], 43.6%. In addition, the viability at 10 µM is > 100% in experiment [5] and 88.7% in experiment [7].

For `COc1cc([C@@H]2c3[nH]c4ccccc4c3C[C@H]3C(=O)N4[C@H](c5cc(OC)c(OC)c(OC)c5)c5[nH]c6ccccc6c5C[C@H]4C(=O)N23)cc(OC)c1OC`, the values for the viability at 100 µM in experiment [1] and in experiment [6] were 65% and 86.7%, respectively. For the same compound, the results for the viability at 50 µM in experiment [3] and in experiment [4] were 90.8% and 80.5%, respectively. Also, the viability at 10 µM was determined as 93% in experiment [5] and 90.3% in experiment [7].

For `COc1cc([C@@H]2c3[nH]c4ccccc4c3C[C@H]3C(=O)N4[C@H](c5cc(OC)c(OCc6ccccc6)c(OC)c5)c5[nH]c6ccccc6c5C[C@H]4C(=O)N23)cc(OC)c1OCc1ccccc1`, the viability at 100 µM was 54.5% in experiment [1] and 81% in experiment [6]. In addition, the figures for the viability at 50 µM in experiment [3] and in experiment [4] were 81.3% and 68.8%, respectively. In addition, the viability at 10 µM in experiment [5] was determined as 98.2%; in experiment [7], 88.1%.

For the compound `COc1cc([C@H]2c3[nH]c4ccccc4c3C[C@@H]3C(=O)N4[C@@H](c5cc(OC)c(OC)c(OC)c5)c5[nH]c6ccccc6c5C[C@@H]4C(=O)N23)cc(OC)c1OC`, the viability at 100 µM worked out at 77.4% in experiment [1] and 98.9% in experiment [6]. Further, the viability at 50 µM in experiment [3] is 98.9%; in experiment [4], > 100%. Also, the viability at 10 µM in experiment [5] was > 100%; in experiment [7], 99.8%.

For `COc1cc([C@H]2c3[nH]c4ccccc4c3C[C@@H]3C(=O)N4[C@@H](c5cc(OC)c(OCc6ccccc6)c(OC)c5)c5[nH]c6ccccc6c5C[C@@H]4C(=O)N23)cc(OC)c1OCc1ccccc1`, the viability at 100 µM in experiment [1] stood at 65.1%; in experiment [6] it was 84.5%. Also, the viability at 50 µM in experiment [3] was > 100%; in experiment [4], 92.7%. The viability at 10 µM in experiment [5] and in experiment [7] was > 100% throughout.
